# Experimental data taken from publication PMC12606464, “Investigating NFE2L1 activators for targeted protein aggregate clearance: a follow-up study” (RSC Medicinal Chemistry, 2025).
# Assays:
# [1] = tested on: HEK293 cells; experiment: alamarBlue cytotoxicity assessment in HEK293 cells; format: cell-based, human; details: for Mean 1 (viability; 0 µM = 100): Fig. S2, n = 3; for Tox [% of ctrl.]: HEK293, alamarBlue, 16 h, concentration not given
# Method in brief: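 HEK293 cells exposed 16 h to compound at 1.25, 2.5, 5, 7.5 and 10 µM, with DMSO as vehicle control. Viability read by alamarBlue; means ± SD of three independent experiments.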
# [2] = tested on: SH-SY5Y cells; experiment: Rotenone-induced α-synuclein proteotoxicity in SH-SY5Y cells; format: cell-based, human; details: SH-SY5Y expressing α-synuclein-GFP; pre-treatment 4 h (0.312-2.5 μM), rotenone 1.125 μM 24 h; approximately 30% without compounds
# Description: Fig. 3 (A) HEK293 cells were treated with RUN compounds at a concentration of 7.5 μM for 16 hours. DMSO was used as a vehicle control. Proteasome chymotrypsin-like activity was measured in cell lysates at 37 °C. Data came from three biological replicates (n = 3). Statistical analysis was done using ratio paired t-tests corrected for multiple comparisons with Holm–Šídák's method (α = 0.05). *p < 0.05. Detailed results of the analysis are shown in SI Table S7. (B) RUN-89 protects against polyQ-mediated toxicity in an NFE2L1-dependent manner. HCT116 parental cells (WT) and two independent DDI2 knockout clones (KO 04 and KO 11), in which NFE2L1 activation is impaired, were transiently transfected with plasmids encoding non-aggregating EGFP-HttQ23 or aggregation-prone EGFP-HttQ74. Cells were treated with 1 or 3 μM RUN-89 for 48 hours, and viability was measured using the alamarBlue assay. […] Data are shown as the Geomean ± GeoSD from four independent biological replicates (n = 4). […] (C left) The protective effect of RUN compounds was assessed by rotenone-induced α-synuclein proteotoxicity in SH-SY5Y cells, which mimics the PD-like phenotype. […]
# A second stress assay was performed using rotenone, a mitochondrial complex I inhibitor. […] After 4 hours, rotenone (1.125 μM) was added and one day later the viability of the cells was measured. […]
SMILES,Mean 1 (viability; 0 µM = 100) ([1]; 5 uM),Mean 1 (viability; 0 µM = 100) ([1]; 10 uM),"Mean 1 (viability; 0 µM = 100) ([1]; 1,125 uM)","Mean 1 (viability; 0 µM = 100) ([1]; 2,5 uM)","Mean 1 (viability; 0 µM = 100) ([1]; 7,5 uM)",Tox [% of ctrl.] [1],Cell viability after rotenone treatment [2]
COc1ccc(/C=C2\CC(N)C/C(=C\c3ccc(OC)c(OC)c3)C2=O)cc1OC (stereo not shown) [RUN-81],80.55,79.08,98.04,92.22,79.02,84% of ctrl.,
COc1ccc(/C=C2\CC(NC(=O)C3CCCC3)C/C(=C\c3ccc(OC)c(OC)c3)C2=O)cc1OC (stereo not shown) [RUN-89],76.01,68.72,100.7,91.49,71.31,81% of ctrl.,up to 70%
COc1ccc(/C=C2\CC(NC(=O)c3ccccn3)C/C(=C\c3ccc(OC)c(OC)c3)C2=O)cc1OC (stereo not shown) [RUN-94],86.01,74.87,105.6,101.6,75.79,78% of ctrl.,
